Marks after values point to notes of the source that are not given here.
Tests used:
Zucker Fatty Rats (ZFR) [1] = experiment: Survival after accidental heat stress; assay type: in vivo; details: Experiment 1; for survival after heat stress (survivors/group): day 42, 86-89° F. for 5-6 hours
Protocol: For two experiments, a total of 96 Zucker Fatty Rats (ZFR) (Charles River, Wilmington, Mass.) were used: 48 in each experiment were divided into four groups of 12 rats. Initial body weights ranged between 434 and 624 g in the first experiment and between 388 and 520 g in the second. All rats consumed a regular rat diet in crushed form (Purina Rat Chow, Ralston Purina, St. Louis, Mo.). Sucrose was added to the pulverized regular rat chow (30%, w/w). The four groups comprised a control eating the described diet and three test groups eating the same diet but with the addition of captopril or astaxanthin (two different doses). […] The amount of astaxanthin added was based on 2% (w/w) content of astaxanthin to powder. The first study continued for 57 days while the second continued for 75 days.
On the 42nd day, the temperature of rodent quarters rose from 72° F. to the range of 86-89° F. It was estimated that the rats were exposed to this elevated temperature for 5-6 hours. […] In contrast all ZFR in the Hi Asta group survived (11/11).
On a hot summer day, the air conditioning system in the animal quarters ceased functioning. The internal temperature of the animal quarters rose to a Fahrenheit range in the high 80's. Due to this heat stress, several ZFR that had already undergone almost six weeks of study expired. […] This can be attributed to poor stress handling of ZFR.

Zucker Fatty Rats (ZFR) [2] = experiment: Insulin Challenge Testing (ICT); assay type: in vivo; details: Experiment 1, survivors after heat stress
Protocol: Testing was commenced after 17-19 hours of food deprivation. For ICT, 0.6 unit of regular insulin/kg BW (Eli Lilly Co., Indianapolis, Ind.) was administered, and blood for glucose determination was obtained from the tail vein at 7.5 min after injection. Glucose was estimated using commercial glucose strips (Lifescan, One Touch Ultra, […], Calif.).

RAS = experiment: Losartan challenge (decrease in SBP to estimate activity of the RAS); assay type: in vivo, Zucker Fatty Rats; details: losartan 40 mg/kg orally
Source text: Three and six hours after lavage, SBP was remeasured. The decreased SBP after losartan was used to estimate activity of the RAS.

Zucker Fatty Rats (ZFR) [3] = experiment: Intraperitoneal Glucose Tolerance Test (ipGTT); assay type: in vivo; details: Experiment 2; for insulin concentration one hour after the glucose challenge: glucose 2.5 g/kg i.p.; for Baseline insulin concentration / average baseline glucose level: ipGTT baseline
Protocol: During the ipGTT, glucose (2.5 g/kg BW) was injected intraperitoneally (i.p.) to challenge the tolerance to glucose. Drops of blood were obtained from the tail at 0, 30, 60, 120, 180 and 240 minutes post injection. Glucose was estimated using commercial glucose strips (Lifescan, One Touch Ultra, […], Calif.).

angiotensin-2 = experiment: Serum angiotensin-2 levels (radioimmunoassay); assay type: in vivo, Zucker Fatty Rats
Protocol: Serum angiotensin-2 was trapped by octylminicolumns (Amprep-C8, 500 mg, Amersham, Buckingshire, UK). Each minicolumn was prewashed with 5 mL of 100% methanol and then with 10 mL of 0.1% trifluoroacetic acid (TFA) in distilled water. After the serum was passed through the minicolumn, it was washed with 0.1% TFA again. […] Samples were collected and dried in a vacuum centrifuge and dissolved in 0.1M Tris-acetate buffer (pH 7.4) containing 2.6 mM disodium salt of ethylenediaminetetra-acetic acid (EDTA), 1 mM phenylmethylsulphonyl fluoride, and 0.1% bovine serum albumin.
Angiotensin-2 was measured by radioimmunoassay using an angiotensin-2 antibody (Peninsula Laboratories Inc., Belmont, Calif.). The sensitivity of the assay is 1.0 pg/tube. The 500-fold diluted angiotensin-2 antibody (100 μL) was added to the sample (400 μL) and standard tubes that were incubated 24 hours at 4° C.

Blood chemistries = assay type: in vivo, Zucker Fatty Rats; details: Experiment 2; for ALP (alkaline phosphatase) / ALT (alanine aminotransferase) / AST (aspartate aminotransferase) / BUN / CO2 / Calcium / Chloride / Cholesterol / Creatinine / Glucose / Potassium / Sodium / Triglycerides: blood at end of study
Source text: Blood for chemical analysis was obtained at the end of the study following removal of food four hours earlier. Blood chemistry values were obtained via dry chemistry procedures using a Johnson and Johnson (Langhorne, Pa.) Vitros® 250 instrument.

TNF-α = experiment: Cytokine assay (ELISA), TNF-α; assay type: in vivo, Zucker Fatty Rats; details: Experiment 2
Protocol: (§1) Various cytokines were measured by ELISA methodology using kits from the following sources: rat MCP-1—Assay Designs Inc., Ann Arbor, Mich.; rat adiponectin—ALPCO Diagnostics, Salem, N.H.; TNF-a, ALPCO Diagnostics, Salem, N.H.; RAT IL-1B—Assay Designs Inc, Ann Arbor, Mich.; RAT IL-6—ALPCO Diagnostics, Salem, N.H.

IL-6 = experiment: Cytokine assay (ELISA), IL-6; assay type: in vivo, Zucker Fatty Rats; details: Experiment 2
Protocol: as §1

MCP-1 = experiment: Cytokine assay (ELISA), MCP-1; assay type: in vivo, Zucker Fatty Rats; details: Experiment 2
Protocol: as §1

Organ weights = assay type: in vivo, Zucker Fatty Rats; details: Experiment 2, after sacrifice, in g (unit assumed)
Protocol: Organ weights were measured immediately after sacrifice of the rats.

[4] = test system: Thiobarbituric acid-reactive substances (TBARS); experiment: Lipid peroxidation (TBARS) in hepatic and kidney homogenates; assay type: in vivo, Zucker Fatty Rats; details: Experiment 2
Protocol: Thiobarbituric acid-reactive substances (TBARS) as an index of lipid peroxidation were determined on hepatic and kidney homogenates from control and treated and malondialdehyde (MDA) was used as the standard.

[5] = Hi Asta, astaxanthin 25 mg/kg in feed
[6] = Lo Asta, astaxanthin 5 mg/kg in feed
[7] = Experiment 2, Hi Asta, astaxanthin 25 mg/kg in feed
[8] = Experiment 2, Lo Asta, astaxanthin 5 mg/kg in feed
[9] = Experiment 2, captopril 30 mg/kg in feed

CC1=C(/C=C/C(C)=C/C=C/C(C)=C/C=C/C=C(C)/C=C/C=C(C)/C=C/C2=C(C)C(=O)[C@@H](O)CC2(C)C)C(C)(C)C[C@H](O)C1=O [Asta, astaxanthin]
survival percentage after heat stress (Zucker Fatty Rats (ZFR) [1]; [5]): 100% | survival percentage after heat stress (Zucker Fatty Rats (ZFR) [1]; [6]): 33% | survival after heat stress (survivors/group) (Zucker Fatty Rats (ZFR) [1]; [5]): 11/11 | survival after heat stress (survivors/group) (Zucker Fatty Rats (ZFR) [1]; [6]): 4/12 | Insulin: decrease in circulating glucose after insulin challenge (ICT) (Zucker Fatty Rats (ZFR) [2]; [5]): -7.6 ± 2.5 mg/dL | Insulin: decrease in circulating glucose after insulin challenge (ICT) (Zucker Fatty Rats (ZFR) [2]; [6]): -8.5 ± 4.1 mg/dL | Losartan: decrease in SBP after losartan challenge (RAS; Experiment 1, survivors after heat stress, Hi Asta, astaxanthin 25 mg/kg in feed): 28.0 ± 2.5 | Losartan: decrease in SBP after losartan challenge (RAS; Experiment 1, survivors after heat stress, Lo Asta, astaxanthin 5 mg/kg in feed): 38.0 ± 3.2 | Losartan: decrease in SBP after losartan challenge (RAS; [7]): 27.5 ± 1.3 mm Hg | Losartan: decrease in SBP after losartan challenge (RAS; [8]): 33.8 ± 2.8 mm Hg | insulin concentration one hour after the glucose challenge (Zucker Fatty Rats (ZFR) [3]; [5]): 2.23 ng/mL | insulin concentration one hour after the glucose challenge (Zucker Fatty Rats (ZFR) [3]; [6]): 2.15 ng/mL | Baseline insulin concentration (Zucker Fatty Rats (ZFR) [3]; [5]): 0.90 ng/mL | average baseline glucose level (Zucker Fatty Rats (ZFR) [3]; [5]): 406 mg/dL | Baseline insulin concentration (Zucker Fatty Rats (ZFR) [3]; [6]): 0.80 ng/mL | average baseline glucose level (Zucker Fatty Rats (ZFR) [3]; [6]): 346 mg/dL | area under the curve after glucose challenge vs control (Zucker Fatty Rats (ZFR) [3]; six rats per group, Hi Asta, astaxanthin 25 mg/kg in feed): statistically significant lower average reading than control | Angio 2 (angiotensin-2; [7]): 177.0 ± 5.2 pg/mL | Angio 2 (angiotensin-2; [8]): 197.0 ± 7.2 pg/mL | renal damage (elevations in BUN and creatinine concentrations) (Blood chemistries; [5]): none of the ZFR in the Hi Asta group showed any evidence of elevations | renal damage (increased circulating urea, creatinine and potassium) (Blood chemistries; [6]): evidence of renal damage occurred in three ZFR | ALP (alkaline phosphatase) (Blood chemistries; [5]): 331 ± 27.3 U/L | ALT (alanine aminotransferase) (Blood chemistries; [5]): 86.2 ± 13.7 units | AST (aspartate aminotransferase) (Blood chemistries; [5]): 106.1 ± 21.0 units | BUN (Blood chemistries; [5]): 15.0 ± 0.5 mg/dL | CO2 (Blood chemistries; [5]): 23.5 ± 0.5 mM | Calcium (Blood chemistries; [5]): 11.4 ± 0.1 mg/dL | Chloride (Blood chemistries; [5]): 98.9 ± 0.8 mM | Cholesterol (Blood chemistries; [5]): 314.0 ± 13.6 mg/dL | Creatinine (Blood chemistries; [5]): 0.5 ± 0.01 mg/dL | Glucose (Blood chemistries; [5]): 327.0 ± 14.2 mg/dL | Potassium (Blood chemistries; [5]): 6 ± 0.13 mM | Sodium (Blood chemistries; [5]): 142 ± 0.8 mM | Triglycerides (Blood chemistries; [5]): 1172.0 ± 51.2 mg/dL | ALP (alkaline phosphatase) (Blood chemistries; [6]): 364 ± 33.4 U/L | ALT (alanine aminotransferase) (Blood chemistries; [6]): 70.9 ± 12.4 units | AST (aspartate aminotransferase) (Blood chemistries; [6]): 105.8 ± 20.9 units | BUN (Blood chemistries; [6]): 25.3 ± 5.4 mg/dL | CO2 (Blood chemistries; [6]): 22.5 ± 1 mM | Calcium (Blood chemistries; [6]): 11.3 ± 0.2 mg/dL | Chloride (Blood chemistries; [6]): 98.4 ± 0.7 mM | Cholesterol (Blood chemistries; [6]): 308.0 ± 27.8 mg/dL | Creatinine (Blood chemistries; [6]): 0.6 ± 0.90 mg/dL | Glucose (Blood chemistries; [6]): 317.0 ± 30.6 mg/dL | Potassium (Blood chemistries; [6]): 6.5 ± 0.04 mM | Sodium (Blood chemistries; [6]): 141 ± 0.7 mM | Triglycerides (Blood chemistries; [6]): 1167.0 ± 71.6 mg/dL | TNF-α (TNF-α; [5]): 294.0 ± 13.0 | TNF-α (TNF-α; [6]): 349.0 ± 11.9 | IL-6 (IL-6; [5]): 433.0 ± 9.3 | IL-6 (IL-6; [6]): 470.0 ± 21^ | MCP-1 (MCP-1; [5]): 96.0 ± 4.1 | MCP-1 (MCP-1; [6]): 110.0 ± 5.2 | Organ weight, Epidydimal fat pad (Organ weights; [5]): 21.7 ± 12 | Organ weight, Kidney (left) (Organ weights; [5]): 2.4 ± 0.08 | Organ weight, Kidney (right) (Organ weights; [5]): 2.5 ± 0.10 | Organ weight, Liver (Organ weights; [5]): 43.3 ± 2.3 | Organ weight, Epidydimal fat pad (Organ weights; [6]): 19.3 ± 0.9 | Organ weight, Kidney (left) (Organ weights; [6]): 2.5 ± 0.16 | Organ weight, Kidney (right) (Organ weights; [6]): 2.5 ± 0.34 | Organ weight, Liver (Organ weights; [6]): 40.4 ± 2.4 | Lipid peroxidation, Kidney [4, 5]: 3.5 ± 0.30 nmoles MDA/mg protein | Lipid peroxidation, Liver [4, 5]: 3.9 ± 0.46 nmoles MDA/mg protein | Lipid peroxidation, Kidney [4, 6]: 3.9 ± 0.48 nmoles MDA/mg protein | Lipid peroxidation, Liver [4, 6]: 4.7 ± 0.53 nmoles MDA/mg protein

C[C@H](CS)C(=O)N1CCC[C@H]1C(=O)O [Captopril, reference compound]
survival percentage after heat stress (Zucker Fatty Rats (ZFR) [1]; captopril 30 mg/kg in feed): 36% | survival after heat stress (survivors/group) (Zucker Fatty Rats (ZFR) [1]; captopril 30 mg/kg in feed): 4/11 | Insulin: decrease in circulating glucose after insulin challenge (ICT) (Zucker Fatty Rats (ZFR) [2]; captopril 30 mg/kg in feed): -9.8 ± 3.5 mg/dL | Losartan: decrease in SBP after losartan challenge (RAS; Experiment 1, survivors after heat stress, captopril 30 mg/kg in feed): 29.0 ± 2.4 | Losartan: decrease in SBP after losartan challenge (RAS; [9]): 30.6 ± 1.8 mm Hg | insulin concentration one hour after the glucose challenge (Zucker Fatty Rats (ZFR) [3]; captopril 30 mg/kg in feed): 2.37 ng/mL | Baseline insulin concentration (Zucker Fatty Rats (ZFR) [3]; captopril 30 mg/kg in feed): 0.82 ng/mL | average baseline glucose level (Zucker Fatty Rats (ZFR) [3]; captopril 30 mg/kg in feed): 302 mg/dL | Angio 2 (angiotensin-2; [9]): 162.0 ± 6.4 pg/mL | ALP (alkaline phosphatase) (Blood chemistries; captopril 30 mg/kg in feed): 333 ± 22.1 U/L | ALT (alanine aminotransferase) (Blood chemistries; captopril 30 mg/kg in feed): 89.4 ± 13.9 units | AST (aspartate aminotransferase) (Blood chemistries; captopril 30 mg/kg in feed): 93.0 ± 12.8 units | BUN (Blood chemistries; captopril 30 mg/kg in feed): 14.0 ± 0.5 mg/dL | CO2 (Blood chemistries; captopril 30 mg/kg in feed): 24.1 ± 0.9 mM | Calcium (Blood chemistries; captopril 30 mg/kg in feed): 11.3 ± 0.6 mg/dL | Chloride (Blood chemistries; captopril 30 mg/kg in feed): 98.6 ± 1 mM | Cholesterol (Blood chemistries; captopril 30 mg/kg in feed): 281.0 ± 15.6 mg/dL | Creatinine (Blood chemistries; captopril 30 mg/kg in feed): 0.4 ± 0.02 mg/dL | Glucose (Blood chemistries; captopril 30 mg/kg in feed): 327.0 ± 23.0 mg/dL | Potassium (Blood chemistries; captopril 30 mg/kg in feed): 6 ± 0.04 mM | Sodium (Blood chemistries; captopril 30 mg/kg in feed): 140 ± 0.5 mM | Triglycerides (Blood chemistries; captopril 30 mg/kg in feed): 1029.0 ± 73.6 mg/dL | TNF-α (TNF-α; captopril 30 mg/kg in feed): 242.0 ± 13.6 | IL-6 (IL-6; captopril 30 mg/kg in feed): 391.0 ± 12*^ | MCP-1 (MCP-1; captopril 30 mg/kg in feed): 81.0 ± 4.1 | Organ weight, Epidydimal fat pad (Organ weights; captopril 30 mg/kg in feed): 19.1 ± 1.2 | Organ weight, Kidney (left) (Organ weights; captopril 30 mg/kg in feed): 2.3 ± 0.09 | Organ weight, Kidney (right) (Organ weights; captopril 30 mg/kg in feed): 2.3 ± 0.09 | Organ weight, Liver (Organ weights; captopril 30 mg/kg in feed): 43.1 ± 2.0 | Lipid peroxidation, Kidney ([4]; captopril 30 mg/kg in feed): 3.4 ± 0.44 nmoles MDA/mg protein | Lipid peroxidation, Liver ([4]; captopril 30 mg/kg in feed): 4.0 ± 0.29 nmoles MDA/mg protein
